Measurements as given in patent US12692262B2, “Substituted ureas as orexin receptor agonists” (Merck Sharp & Dohme LLC, priority 2020, dated 2026).

Target: T1, human OX2R (Homo sapiens, UniProt O43614)
T1 construct: expressed in transfected cells; host or cells: CHO (Chinese hamster ovary) cells grown under G418 selection
T1 sequence (O43614 1-444): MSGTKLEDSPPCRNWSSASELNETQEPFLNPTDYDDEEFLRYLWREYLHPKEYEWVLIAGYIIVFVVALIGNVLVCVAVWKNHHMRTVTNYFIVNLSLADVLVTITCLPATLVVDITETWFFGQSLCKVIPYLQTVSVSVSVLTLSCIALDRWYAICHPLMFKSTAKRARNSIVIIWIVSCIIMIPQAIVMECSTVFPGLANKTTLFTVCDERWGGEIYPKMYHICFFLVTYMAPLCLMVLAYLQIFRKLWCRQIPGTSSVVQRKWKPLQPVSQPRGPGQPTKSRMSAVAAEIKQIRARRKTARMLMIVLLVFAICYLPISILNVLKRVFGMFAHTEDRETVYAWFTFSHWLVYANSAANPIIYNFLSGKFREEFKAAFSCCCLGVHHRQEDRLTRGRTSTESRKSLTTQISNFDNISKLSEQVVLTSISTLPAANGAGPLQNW
Test: IPOne (IP-1 accumulation) assay in CHO cells expressing human OX2R
Assay type: cell-based
Conditions: for EC50: CHO cells expressing human OX2R, IP-One assay, 2 h incubation, four parameter logistic fit, read-out: OX2R Potency, EC50; for % of maximum agonist effect (relative to Orexin A): percent effect vs mean max effect of a reference compound at 1 uM (100% activity vs Orexin A), human OX2R
How it was run: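 Agonist EC50 values come from the inflection point of four-parameter logistic curves. Read-out is IP-1 accumulation detected with lysis buffer plus D2 and AB-cryptate reagents (HTRF), in CHO cells engineered to express human OX2R.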

Row | EC50 | % of maximum agonist effect (relative to Orexin A) | SMILES
1 | 1 nM | 98.7% | CCN(C(=O)N[C@@H](CCC(F)(F)F)C(F)(F)F)[C@H](C)c1cc(-c2cc3ccnn3c(OC)n2)c(OC)cn1 [Example 2-51, 1-ethyl-3-((S)-1,1,1,5,5,5-hexafluoropentan-2-yl)-1-((R)-1-(5-methoxy-4-(7-methoxypyrazolo[1,5-c]pyrimidin-5-yl)pyridin-2-yl)ethyl)urea]
2 | 35.8 nM | 100.6% | CCN(C(=O)NC(CC(F)F)C(F)(F)F)[C@H](C)c1cccc(-c2cn3ccnc3c(OC)n2)c1 (stereo partly drawn) [Example 2-52, 1-ethyl-1-((R)-1-(3-(8-methoxyimidazo[1,2-a]pyrazin-6-yl)phenyl)ethyl)-3-(1,1,1,4,4-pentafluorobutan-2-yl)urea]
3 | 1.5 nM | 101.6% | CCN(C(=O)NC(C1CC(F)(F)CCN1C)C(F)(F)F)[C@H](C)c1cccc(-c2cc(OC)n3nccc3c2)c1 (stereo partly drawn) [Example 2-53, 3-(1-(4,4-difluoro-1-methylpiperidin-2-yl)-2,2,2-trifluoroethyl)-1-ethyl-1-((R)-1-(3-(7-methoxypyrazolo[1,5-a]pyridin-5-yl)phenyl)ethyl)urea]
4 | 1.6 nM | 99.4% | CCN(C(=O)NC(CCC(C)=O)C(F)(F)F)[C@H](C)c1cccc(-c2cn3ccnc3c(OC)n2)c1 (stereo partly drawn) [Example 2-54, 1-ethyl-1-((R)-1-(3-(8-methoxyimidazo[1,2-a]pyrazin-6-yl)phenyl)ethyl)-3-(1,1,1-trifluoro-5-oxohexan-2-yl)urea]
5 | 129 nM | 99.4% | CCN(C(=O)NC(CCC(F)(F)F)C(C)(F)F)[C@H](C)c1cccc(-c2cn3ccnc3c(OC)n2)c1 (stereo partly drawn) [Example 2-55, 1-ethyl-1-((R)-1-(3-(8-methoxyimidazo[1,2-a]pyrazin-6-yl)phenyl)ethyl)-3-(2,2,6,6,6-pentafluorohexan-3-yl)urea]
6 | 15.3 nM | 96.2% | CCOC1(CC(NC(=O)N(CC)[C@H](C)c2cccc(-c3cn4ccnc4c(OC)n3)c2)C(F)(F)F)CC1 (stereo partly drawn) [Example 2-57, 3-(3-(1-ethoxycyclopropyl)-1,1,1-trifluoropropan-2-yl)-1-ethyl-1-((R)-1-(3-(8-methoxyimidazo[1,2-a]pyrazin-6-yl)phenyl)ethyl)urea]
7 | 17.8 nM | 100.0% | CC[C@H](CCC(F)(F)F)NC(=O)N(C)[C@H](C)c1cccc(-c2cn3ccnc3c(OC)n2)c1 [Example 2-58, 1-((R)-1-(3-(8-methoxyimidazo[1,2-a]pyrazin-6-yl)phenyl)ethyl)-1-methyl-3-((R)-6,6,6-trifluorohexan-3-yl)urea]
8 | 20.9 nM | 100.2% | CCCN(C(=O)N[C@H](CC)CCC(F)(F)F)[C@H](C)c1cccc(-c2cn3ccnc3c(OC)n2)c1 [Example 2-59, 1-((R)-1-(3-(8-methoxyimidazo[1,2-a]pyrazin-6-yl)phenyl)ethyl)-1-propyl-3-((R)-6,6,6-trifluorohexan-3-yl)urea]
9 | 64.4 nM | 97.4% | CC[C@H](CCC(F)(F)F)NC(=O)N(C(C)C)[C@H](C)c1cccc(-c2cn3ccnc3c(OC)n2)c1 [Example 2-60, 1-isopropyl-1-((R)-1-(3-(8-methoxyimidazo[1,2-a]pyrazin-6-yl)phenyl)ethyl)-3-((R)-6,6,6-trifluorohexan-3-yl)urea]
10 | 5.8 nM | 99.5% | COc1nc(-c2cccc(C(C)N(CC(F)F)C(=O)N[C@@H](CCC(F)(F)F)C(F)(F)F)c2)cn2ccnc12 (stereo partly drawn) [Example 2-61, 1-(2,2-difluoroethyl)-3-((S)-1,1,1,5,5,5-hexafluoropentan-2-yl)-1-(1-(3-(8-methoxyimidazo[1,2-a]pyrazin-6-yl)phenyl)ethyl)urea]
